Data: patent US8889705B2, “Noscapine analogs and their use in treating cancers” (Emory University, priority 2007, dated 2014)
Entries after “also recorded” stand apart in the source; their conditions may differ.

Key:
tubulin = system: T1, tubulin; test: Tubulin polymerization assay (light scattering at 550 nm); type: biochemical, mammalian; conditions: 25 μM or 100 μM
T1 construct: other: 2 μM tubulin, 45 min at 37° C., double reciprocal plot; rate and extent of tubulin polymerization; other: 25 μM or 100 μM
Description: Mammalian brain tubulin (1.0 mg/ml) was mixed with different concentrations of 9-nitro-nos (25 or 100 μM) at 0° C. in an assembly buffer (100 mM PIPES at pH 6.8, 3 mM MgSO4, 1 mM EGTA, 1 mM GTP, and 1M sodium glutamate). Polymerization was initiated by raising the temperature to 37° C. in a water bath. The rate and extent of the polymerization reaction were monitored by light scattering at 550 nm, using a 0.3-cm path length cuvette in a JASCO FP-6500 spectrofluorometer (JASCO, Tokyo, Japan) for 30 minutes.

[1] = system: normal human fibroblast cells; test: Cell cycle analysis (propidium iodide, flow cytometry); type: cell-based; conditions: 100 μM
Description: The flow cytometric evaluation of the cell cycle status was performed as described previously (Zhou et al., 2003). Briefly, 2×10^6 cells were centrifuged, washed twice with ice-cold PBS, and fixed in 70% ethanol. Tubes containing the cell pellets were stored at 4° C. for at least 24 hours. Cells were then centrifuged at 1000×g for 10 min and the supernatant was discarded. The pellets were washed twice with 5 ml of PBS and then stained with 0.5 ml of propidium iodide (0.1% in 0.6% Triton-X in PBS) and 0.5 ml of RNase A (2 mg/ml) for 45 minutes in dark. Samples were then analyzed on a FACSCalibur flow cytometer (Beckman Coulter Inc., Fullerton, Calif.).

1A9 cells = test: Sulforhodamine B cell proliferation assay; type: cell-based; conditions: Homo sapiens; 1A9, 72 hours, SRB
Description: (§1) Sulforhodamine B assay: The cell proliferation assay was performed in 96-well plates as described previously (Skehan et al., 1990; Zhou et al., 2003). Adherent cells (1A9 and 1A9/PTX22) were seeded in 96-well plates at a density of 5×10^3 cells per well. They were treated with increasing gradient concentrations of 9-nitro-nos the next day while in log-phase growth. After 72 hours of drug treatment, cells were fixed with 50% trichloroacetic acid and stained with 0.4% sulforhodamine B dissolved in 1% acetic acid. Cells were then washed with 1% acetic acid to remove unbound dye. The protein-bound dye was extracted with 10 mM Tris base to determine the optical density at 564-nm wavelength.

1A9/PTX22 cells = test: Sulforhodamine B cell proliferation assay; type: cell-based; conditions: Homo sapiens, 1A9/ptx-22; 1A9/PTX22, 72 hours, SRB
Description: as §1

SMILES: COc1ccc2c(c1OC)C(=O)O[C@@H]2[C@H]1c2c(c([N+](=O)[O-])c3c(c2OC)OCO3)CCN1C [9-nitro-nos, (S)-6,7-dimethoxy-3-((R)-4-methoxy-6-methyl-9-nitro-5,6,7,8-tetrahydro-[1,3]dioxolo[4,5-g]isoquinolin-5-yl)isobenzofuran-1(3H)-one]
- rate and extent of tubulin polymerization (tubulin): did not inhibit the rate or extent of tubulin polymerization
- cell cycle profile of normal human fibroblast cells [1]: did not observe any perturbations in the cell cycle profile; also recorded: did not alter the cell cycle progression profile
- IC50 (1A9 cells): 30.1 µM
- IC50 (1A9/PTX22 cells): 27.5 µM
